We go through 5 molecules from patent US5700480A, “Transdermal therapeutic system comprising galanthamine as active component” (priority 1993, dated 1997).

Series [1] in a line: penetration through excized rodent (mice) skin, Franz' diffusion cells. The conditions noted are these: galanthamine, mice skin in vitro; addition of the acid as penetration enhancer. Format: in vitro ADME. On the procedure:
150 g 52.8% (w/w) active substance-containing adhesive solution result which is spread on an aluminized and siliconized polyethylene sheet by means of a 350 μm coating knife. After the solvents have been removed by drying for 30 min. up to 60° C., the adhesive film is covered with a polyester sheet (15 μm). An area of 16 cm^2 is punched by means of a suitable cutting tool and the edges are separated off. The release relating to both this and the other examples is listed in the table; the list indicates both the controlled release into a physiological saline and through excized rodent skin.
The in-vitro-release was determined in a shaking water bath at 37° C. The acceptor medium was 100 ml physiological saline which was completely changed after 2, 4 and 8 hours. The concentration was determined by HPLC after 2, 4, and 8 and 24 hours. The penetration through mice skin was measured by means of Franz' diffusion cells.

The next series deals with cholinesterase. The conditions noted are these: cited from earlier work.
For series [2] the following is noted: vs physostigmine or neostigmine; cited from earlier work.

`CCCCCCCC(=O)O` [octanoic acid]: the “penetration rate increase by addition of acid” value (from here on “penetration rate increase”) in series [1] was 1.5 factor.

Turning to `CC(C)CCCCCCCCCCCCCCC(=O)O` [isostearic acid], the “penetration rate increase” value in series [1] was 1.5 factor.

For the molecule `COc1ccc2c3c1OC1CC(O)C=CC31CCN(C)C2` (centres unmarked) [galanthamine, 4a,5,9,10,11,12-hexahydro-3-methoxy-11-methyl-6H-benzofuro (3a,3,2-ef) (2) benzazepin-6-ol], the “cholinesterase inhibition (in words)” value in the series on cholinesterase (pharmacological properties) was “reversibly acting cholinesterase inhibitors”. Also, the “cholinesterase inhibiting-action, relative to the dosage” value in the series with cholinesterase (vs physostigmine or neostigmine) was “slightly lower”. In series [2], the therapeutic range result is on record as “three to six times broader” and the “toxicity (in words)” value is given as “not as toxic as physostigmine or neostigmine”.

Regarding `CCCCCCCC/C=C\CCCCCCCC(=O)O` [oleic acid], the “penetration rate increase” value in series [1] is 1.5 factor.

Take `C=CCCCCCCCCC(=O)O` [undecenoic acid]: in series [1], the “penetration rate increase” value came to 1.5 factor.
